{"source": "patent US20070078207A1", "about": "“Stabilizer cyanoacrylate formulations” (priority 2005, published 2007)", "system": "L5178Y TK^±", "assay": "Mouse lymphoma screening study, mutation assay without activation (protocol 431ICH1 edition 3)", "format": "cell-based", "method": "In order to determine mutagenic activity for cyanoacrylate compositions containing hydroquinone, a mouse lymphoma screening study was conducted according to methods known in the art. The assay protocol used was 431ICH1 edition 3 (L5178Y TK^±) and was conducted by Covance, Inc. The amount of radical stabilizer in each of the cyanoacrylate compositions was varied. The selective agent was 3.0 μg/ml 5-trifluorothymidine (TFT).", "data": [{"compound": "Oc1ccc(O)cc1", "note": "[HQ in saline, hydroquinone]", "values": [{"measurement": "mutagenic activity", "setting": "result in words, mutagenic activity defined as 124.1×10E-6 units", "result": "does not exhibit mutagenicity"}, {"measurement": "Cumulative RSG", "setting": "without activation, Relative to Vehicle Control (%)", "result": 2.0, "unit": "%"}, {"measurement": "Daily Cell Counts Day 2", "setting": "without activation, footnote g = not subcultured", "result": "0.9^g Cell/ML, 10E5 units"}, {"measurement": "Daily Cell Counts Day 1", "setting": "without activation, selective agent 3.0 μg/ml TFT", "result": "0.5 Cell/ML, 10E5 units"}]}]}
